How the values were obtained:
[1] = system: allogeneic peripheral blood mononuclear cells (mixed lymphocyte reaction); experiment: Mixed lymphocyte reaction (MLR) with ProCell (oxytocin) treated cord blood CD14 monocytes; type: cell-based, human; settings: for Proliferation in MLR: ProCell treated CD14 monocytes added to MLR, tritiated thymidine; for Treg (FoxP3) generation in MLR: flow cytometry
Procedure: Methods: UCBMNC where treated with ProCell (oxytocin) and monocytic populations where extracted by CD14 Magnetic Activated Cell Separation (MACS). Immune modulatory activity of isolated cells was examined by coculture with allogeneic lymphocytes, as well as added to ongoing mixed lymphocyte reaction (MLR). Proliferation and cytokine production was assessed. Furthermore generation of T regulatory cells was examined by flow cytometry for FoxP3 and ability to suppress T cell proliferation stimulated by CD3/CD28.
Cryopreserved human umbilical cord mononuclear cells (UB-MNCs) were obtained from All Cells, LLC. Immediately prior to the experiment the UBMNC s were thawed in a 37° C. water bath for about one minute and then washed twice in 10 ml PBS with 100 μl DNase (Sigma #D4527-40KU, 1 mg/ml). The number of viable cells was determined using the trypan blue exclusion method. Cell viability generally ranged from 80% to 90%.
Using magnetic antibody cell sorting (MACS), UB-MNCs were selected CD14+ monocytes, the MNC were centrifuged at 1000 rpm×10 minutes, the supernatant aspirated and the cells resuspended in 80 μl of buffer per […] and incubated at 4° C. for 15 min. Antibody conjugated paramagnetic microbeads CD14 labeled beads (cat #130-050-201, Miltenyi Biotechwere used to enrich for monocytes. After incubation, the cells were washed with buffer and centrifuged at 1000 rpm for 10 min. The cells were resuspended in 500 μl of buffer, then passed through a magnetic column that trapped the paramagnetic beads and the cells they were attached to (AutoMacs Pro). The magnetic field was disengaged and the cells collected.
CD14 cells were cultured in ProCell (oxytocin) at various concentrations in Opti-Mem media with 10% fetal calf serum for 1 hour at 37 Celsius. Cells where subsequently washed in Phosphate Buffered Saline and plated in vitro. Assessment of Treg generation was performed in mixed lymphocyte reaction with allogeneic peripheral blood mononuclear cells. The culture lasted either 48 or 72 hours and various concentrations of ProCell (oxytocin) treated cord blood CD14 expressing cells where added to the responding PBMC. Evaluation of proliferation was performed using the tritiated thymidine method, and cytokine production was measured using ELISA.
Additionally, the stimulation of FoxP3 expression was performed by flow cytometry using fixation and permeabiliization method.

[2] = system: CD3/CD28 stimulated T cell proliferation; experiment: CD3/CD28 stimulation of ProCell (oxytocin) treated bone marrow mononuclear cells: proliferation and cytokines; type: cell-based
Procedure: (§1) Methods: Immune modulatory activity of ProCell (oxytocin) was assessed by treatment of bone marrow mononuclear cells with ProCell (oxytocin) and subsequently assayed for proliferative ability and cytokine in response to CD3/CD28 stimulation. The concentration and incubation time of ProCell (oxytocin) identified for maximal immune modulatory effect was used to treat syngeneic bone marrow cells prior to implantation in the SJL/J model of EAE. Cell transplant experiments involving transfer of mesenchymal stem cells (CD105), monocytes (CD14), T cells (CD3) and B cells (CD20) where performed to identify the cellular population responsible for disease protective effect.

[3] = system: experimental autoimmune encephalomyelitis (EAE); experiment: SJL/J model of experimental autoimmune encephalomyelitis (EAE), syngeneic bone marrow cells cultured in ProCell; type: in vivo
Procedure: as §1

[4] = system: human umbilical vein endothelial cell (HUVEC); experiment: HUVEC proliferation in vitro; type: cell-based; settings: compared among 73 factors tested
Procedure: (§2) Methods: ProCell(oxytocin) was assessed for ability to stimulate human umbilical vein endothelial cell (HUVEC) proliferation in vitro. Selected compounds where tested for ability to stimulate colony and tube formation. In vivo angiogenic activity was tested by administration of bone marrow mononuclear cells alone, or ProCell-treated bone marrow mononuclear cells in the hindlimb ischemia assay.

[5] = system: bone marrow mononuclear cells / endothelial progenitors; experiment: Endothelial colony and tube formation of bone marrow cells; type: cell-based, human; settings: for Endothelial colony formation: bone marrow cells incubated in ProCell, semi-solid media with endothelial differentiation cocktail
Procedure: as §2
Bone marrow was aspirated from patients 3 patients 18-25 years old (Young Patients) and 3 patients 65-80 years old (Old Patients). The cells were either incubated in saline for 30 minutes or incubated in ProCell(oxytocin). Bone marrow cells were evaluated. Evaluation of colony formation was performed by plating mononuclear cells in semi-solid media containing endothelial differentiation cocktail. Number of colonies where counted.

hindlimb ischemia = experiment: Hindlimb ischemia assay (femoral artery ligation), limb survival; type: in vivo, mice
Procedure: Methods: ProCell(oxytocin) was assessed for ability to stimulate human umbilical vein endothelial cell (HUVEC) proliferation in vitro. Selected compounds where tested for ability to stimulate colony and tube formation. In vivo angiogenic activity was tested by administration of bone marrow mononuclear cells alone, or ProCell-treated bone marrow mononuclear cells in the hindlimb ischemia assay. Bone marrow mononuclear cells where obtained from syngeneic mice. Cells where administered at a concentration of 1 million cells per leg intramuscularly on days 0, 2, and 4, Oxytocin was injected in the same area on the same days at a concentration of 0.1 IU per mouse. Injury was induced by ligation of the femoral artery and neurotrophic injury was induced. Limb survival was quantified.

critical limb ischemia = experiment: Pilot study in patients with critical limb ischemia; type: in vivo, human patients
Procedure: Three patients suffering from critical limb ischemia were recruited. Patients matched the following inclusion criteria. a. Unreconstructable arterial disease was determined by a vascular surgeon who is not participating in the study. Unreconstructable arterial disease is defined by atherocclusive lesions within the arterial tree of the extremity that due to extent or morphology are not amenable to surgical bypass or PTCA and stenting. b. Objective evidence of severe peripheral arterial disease includes an ankle brachial index (ABI) of less than 0.55, and/or a resting toe brachial index (TBI) of […]. c. Patients must be competent to give consent. d. No history of malignant disease except for nonmelanoma skin cancer, no suspicious findings on chest x-ray, mammography (women over age 35), Papanicolaou smear (women over age 40), a normal fecal occult blood (over age 50) and a normal prostate specific antigen (men over age 45). Patients were injected with 10(8) bone-marrow mononuclear cells/aspirate, and administration of ProCell(oxytocin) was performed concurrently. Injections were performed using 10 million cells per injection, with 10 injections locally at the area of failed perfusion in a 10 cm×10 cm area in the gastrocnemius muscle. Ankle Brachial index was measured by comparing the ankle and brachial pressure.

[6] = ProCell treated monocytes, ELISA
[7] = bone marrow cells with concurrent ProCell, patients

CC[C@H](C)[C@@H]1NC(=O)[C@H](Cc2ccc(O)cc2)NC(=O)[C@@H](N)CSSC[C@@H](C(=O)N2CCC[C@H]2C(=O)N[C@@H](CC(C)C)C(=O)NCC(N)=O)NC(=O)[C@H](CC(N)=O)NC(=O)[C@H](CCC(N)=O)NC1=O [ProCell, Oxytocin]
Proliferation in MLR [1]: suppress proliferation
Proliferation in MLR ([1]; listed as ProCell (oxytocin)): actively inhibited ongoing MLR
TGF-beta in MLR ([1]; ProCell treated monocytes): augmentation
IFN-gamma in MLR [1, 6]: suppress IFN-Gamma
IL-10 in MLR [1, 6]: enhances IL-10
IL-10 in MLR ([1]; ProCell treated monocytes, ELISA, listed as ProCell (oxytocin)): augmentation
Treg (FoxP3) generation in MLR ([1]; ProCell treated monocytes): enhances Treg (FoxP3)
Treg (FoxP3) generation in MLR ([1]; ProCell treated monocytes, listed as ProCell (oxytocin)): in vitro generation of active T regulatory cells was observed
Stimulation of allogeneic T cell proliferation ([1]; coculture of ProCell cultured CD14 cells with allogeneic lymphocytes): did not stimulate allogeneic T cell proliferation
IFN-gamma production ([2]; CD3/CD28 stimulation): inhibition
IL-10 production ([2]; CD3/CD28 stimulation): upregulation
IL-12 production ([2]; CD3/CD28 stimulation): inhibition
TGF-beta production ([2]; CD3/CD28 stimulation): upregulation
CD3/CD28 stimulated T cell proliferation ([2]; bone marrow mononuclear cells treated with ProCell): inhibitory effect
Relapse of EAE ([3]; animals treated with ProCell cultured cells): accelerated reduction of relapse
Inhibition of EAE ([3]; animals treated with ProCell cultured syngeneic bone marrow cells): Dose dependent inhibition of EAE
FoxP3 expressing cells ([3]; correlated with disease inhibition): increased FoxP3 expressing cells
Stimulation of HUVEC proliferation [4]: highest stimulatory activity
Endothelial colony formation [5]: increases endothelial colony formation
Endothelial colony formation ([5]; listed as ProCell(oxytocin)): potent induction
Tube formation ([5]; endothelial progenitors and non-purified bone marrow mononuclear cells): potent induction
Limb loss (hindlimb ischemia; ProCell incubated bone marrow cells): prevents limb loss
Limb loss (hindlimb ischemia; ProCell incubated bone marrow cells, listed as ProCell(oxytocin)): prevent limb loss
Neoangiogenesis in hindlimb ischemia model (hindlimb ischemia; bone marrow mononuclear cells/aspirate incubated with ProCell): enhanced ability to stimulate neoangiogenesis
Limb loss (hindlimb ischemia; localized separate intramuscular administration of ProCell and bone marrow mononuclear cells/aspirate): prevention of limb loss
Amputation during the study period (critical limb ischemia; 10(8) bone-marrow mononuclear cells/aspirate with concurrent ProCell): No patients reported amputation
Critical limb ischemia, before and after photographs (critical limb ischemia; bone marrow cells with ProCell): improving critical limb ischemia
Ankle brachial index (critical limb ischemia; [7]): improving
Ankle pressure (critical limb ischemia; [7]): improving

From patent publication US20240024365A1, “POTENTIATION OF BONE MARROW CELL ACTIVITY BY COADMINISTRATION WITH OXYTOCIN” (CREATIVE MEDICAL TECHNOLOGIES, INC., priority 2022, published 2024)
